Assay results published in patent US20100048498A1, “STABLE NON-DIHYDRATE AZITHROMYCIN ORAL SUSPENSIONS” (priority 2004, published 2010).

Columns and labels:
Type in all cases: physicochemical
[1] = Stability of non-dihydrate azithromycin in suspension (POS formulation II or bulk drug in water); SS-NMR quantification of form A
Experimental: The stability of various forms of non-dihydrate azithromycin, in water and in flavored oral suspensions, was evaluated. Specifically, non-dihydrate azithromycin forms G, M, N, F and J were separately used in POS formulation II. These POS formulations were constituted by mixing with 18 mls of water. The suspensions were then stored for 1, 5 and 10 days at either 5° C. or 30° C. Suspensions of bulk azithromycin forms G, M, N, F and J were also constituted with 18 mls of water and stored under the same conditions.
Upon conclusion of the storage time period the suspensions were filtered and suspended solids collected as described previously.

[2] = Effect of cyclodextrins on non-dihydrate azithromycin form conversion in constituted POS formulation II; conditions: for % Form A: 18 mls water
Experimental: The effect of adding a complexing agent such as cyclodextrin on the stability of non-dihydrate azithromycin forms G, M and F against conversion in a constituted POS formulation were evaluated.
Forms G, M and F of azithromycin were formulated into POS formulation II. Various cyclodextrins were added to the POS formulation II and the resulting samples were constituted with 18 mls of water. The suspensions were then stored for 24 hours at room temperature. At the end of the storage time, the suspensions were filtered and the recovered solids were weighed and analyzed by SS-NMR to quantify the presence of azithromycin dihydrate (form A). The control samples were formulated into formulation II with non-dihydrate azithromycin form G, M and F without cyclodextrins and were constituted with water, stored, filtered and analyzed identically to the cyclodextrin samples described above. A control, which had no cyclodextrin was run with each series of experiments. The SS-NMR data are presented in Tables 10, 11, 12 and the results are given as weight percent (% wt), of the recovered azithromycin sample.

[3] = Effects of flavoring components upon azithromycin form F conversion in constituted POS; conditions: room temperature
Text: POS formulation II was constituted with water and stored identically to serve as a control for this experiment.

[4] = Bulk Drug in 18 mls water, 5° C., Day 1
[5] = Bulk Drug in 18 mls water, 5° C., Day 10
[6] = Bulk Drug in 18 mls water, 30° C., Day 1
[7] = Bulk Drug in 18 mls water, 30° C., Day 10
[8] = Formulation II constituted with 18 mls water, 5° C., Day 1
[9] = Formulation II constituted with 18 mls water, 5° C., Day 10
[10] = Formulation II constituted with 18 mls water, 30° C., Day 1
[11] = Formulation II constituted with 18 mls water, 30° C., Day 10
[12] = POS Formulation II + Hydroxypropyl β-cyclodextrin 11.1 % w/w, 24 hours room temperature (Tables 11, 12)
[13] = POS Formulation II, no cyclodextrin (Control), 24 hours room temperature (Tables 11, 12)

% A (azithromycin dihydrate, form A, of recovered azithromycin) [1, 4] | % A (azithromycin dihydrate, form A, of recovered azithromycin) [1, 5] | % A (azithromycin dihydrate, form A, of recovered azithromycin) [1, 6] | % A (azithromycin dihydrate, form A, of recovered azithromycin) [1, 7] | % A (azithromycin dihydrate, form A, of recovered azithromycin) [1, 8] | % A (azithromycin dihydrate, form A, of recovered azithromycin) [1, 9] | % A (azithromycin dihydrate, form A, of recovered azithromycin) [1, 10] | % A (azithromycin dihydrate, form A, of recovered azithromycin) [1, 11] | % Form A [2, 12] | % Form A [2, 13] | Structure (SMILES) | also measured
0% | 0% | 0% | 0% | 0% | 0% | 0% | 0% |  |  | CCC1OC(=O)C(C)C(O[C@H]2C[C@@](C)(OC)[C@@H](O)C(C)O2)C(C)[C@@H](OC2OC(C)CC(N(C)C)[C@H]2O)[C@@](C)(O)C[C@@H](C)CN(C)[C@H](C)[C@@H](O)[C@]1(C)O (some centres unmarked) [Form J, azithromycin monohydrate hemi-n-propanol solvate] | 
0% | 0% | 0% | 0% | 6% | 27% | 19% | 31% | 0.0% | 74.6% | CCC1OC(=O)C(C)C(O[C@H]2C[C@@](C)(OC)[C@@H](O)C(C)O2)C(C)[C@@H](OC2OC(C)CC(N(C)C)[C@H]2O)[C@@](C)(O)C[C@@H](C)CN(C)[C@H](C)[C@@H](O)[C@]1(C)O (some centres unmarked) [Form F, azithromycin monohydrate hemi-ethanol solvate] | % Form A ([2]; POS Formulation II + Sulfobutylether β-cyclodextrin 11.1 % w/w, 24 hours room temperature (Table 11)): 0.0%; % Form A ([2]; POS Formulation II + α-cyclodextrin 1.2 % w/w, 24 hours room temperature (Table 11)): 0.0%; conversion to form A ([2]; POS Formulation II when cyclodextrins were present, 24 hours room temperature): no conversion; % F (SS-NMR Evaluation after 24 hrs constitution) ([3]; Formulation I constituted with 18 mL 0.0577 mg/ml benzaldehyde): 0%; % F (SS-NMR Evaluation after 24 hrs constitution) ([3]; Formulation I constituted with 18 mL 0.922 mg/ml 3-methyl-butyl acetate + 0.0577 mg/ml benzaldehyde): 0%; % F (SS-NMR Evaluation after 24 hrs constitution) ([3]; Formulation I constituted with 18 mL 0.922 mg/ml 3-methyl-butyl acetate): 0%; % F (SS-NMR Evaluation after 24 hrs constitution) ([3]; Formulation I constituted with 18 mL 1.666 mg/ml 3-methyl-butyl acetate): 0%; % F (SS-NMR Evaluation after 24 hrs constitution) ([3]; Formulation II constituted with 18 mL Water): 0%
0% | 0% | 0% | 0% | 23% | 40% | 28% | 62% | 0.0% | 71.6% | CCC1OC(=O)C(C)C(O[C@H]2C[C@@](C)(OC)[C@@H](O)C(C)O2)C(C)[C@@H](OC2OC(C)CC(N(C)C)[C@H]2O)[C@@](C)(O)C[C@@H](C)CN(C)[C@H](C)[C@@H](O)[C@]1(C)O (some centres unmarked) [Form M, azithromycin monohydrate hemi-isopropanol solvate] | % A (azithromycin dihydrate, form A, of recovered azithromycin) ([1]; Bulk Drug in 18 mls water, 5° C., Day 5): 0%; % A (azithromycin dihydrate, form A, of recovered azithromycin) ([1]; Bulk Drug in 18 mls water, 30° C., Day 5): 0%; % A (azithromycin dihydrate, form A, of recovered azithromycin) ([1]; Formulation II constituted with 18 mls water, 5° C., Day 5): 38%; % A (azithromycin dihydrate, form A, of recovered azithromycin) ([1]; Formulation II constituted with 18 mls water, 30° C., Day 5): 36%; % Form A ([2]; POS Formulation II + Hydroxypropyl β-cyclodextrin 11.1 % w/w, 24 hours room temperature (Tables 11, 12), listed as form M): no conversion; % Form A ([2]; POS Formulation II + β-cyclodextrin 1.2 % w/w, 24 hours room temperature (Table 12)): 0.9%; % Form A ([2]; POS Formulation II + β-cyclodextrin 1.2 % w/w, 24 hours room temperature (Table 12), listed as form M): very small amount of conversion; % Form A ([2]; POS Formulation II + γ-cyclodextrin 1.2 % w/w, 24 hours room temperature (Table 12)): 29.9%
